Results as given in ChEMBL document CHEMBL1201862, “PubChem BioAssay data set” (2004).
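Briefly, cells in 96-well plates were exposed to five compound concentrations for 48 h, and endpoints were estimated by linear interpolation. The concentration for 50% growth inhibition is given as GI50.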 Activity calls are given as the source filed them. No stated cut-off is given here; in the data, active = GI50 up to about 1.1 µM and inactive = higher. *1 amine or outer side, *2 acyl side, *3 side chain or, on linkers, in order; H or OH if unused. Where a SMILES comes first, the peptide text is derived from it. Bridges are numbered along the chain shown (N, C = ends). [ ]: non-standard residue; d: D form. The star is where a group is joined. X36 = O=C(C(CCCCNO[*:3])N[*:1])[*:2]; Fmoc = O=C(OCC1c2ccccc2-c2ccccc21)*

Experiments:
Test in all cases: growth of human tumour cells (NCI), 48 h
U-251 = test system: U-251
SK-MEL-2 = test system: SK-MEL-2
HOP-62 = test system: HOP-62
SK-OV-3 = test system: SK-OV-3
HOP-92 = test system: HOP-92
SN12C = test system: SN12C
MOLT-4 = test system: MOLT-4
K562 = test system: K562
PC-3 = test system: PC-3
SNB-19 = test system: SNB-19
CAKI-1 = test system: CAKI-1
HCT-15 = test system: HCT-15
LOX IMVI = test system: LOX IMVI
OVCAR-3 = test system: OVCAR-3
COLO 205 = test system: COLO 205
NCI-H23 = test system: NCI-H23
ACHN = test system: ACHN
786-0 = test system: 786-0
HL-60 = test system: HL-60
RPMI-8226 = test system: RPMI-8226

SMILES | GI50 (U-251) | GI50 (SK-MEL-2) | GI50 (HOP-62) | GI50 (SK-OV-3) | GI50 (HOP-92) | GI50 (SN12C) | GI50 (MOLT-4) | GI50 (K562) | GI50 (PC-3) | GI50 (SNB-19) | GI50 (CAKI-1) | GI50 (HCT-15) | GI50 (LOX IMVI) | GI50 (OVCAR-3) | GI50 (COLO 205) | GI50 (NCI-H23) | GI50 (ACHN) | GI50 (786-0) | GI50 (HL-60) | GI50 (RPMI-8226)
CC(C)(CO)NC(=O)Nc1c(C(F)(F)F)cc(-c2ccccc2)[nH]c1=O | > 100 µM (inactive) | > 100 µM (inactive) | > 100 µM (inactive) | > 100 µM (inactive) | > 100 µM (inactive) | > 100 µM (inactive) | > 100 µM (inactive) | > 100 µM (inactive) | > 100 µM (inactive) | > 100 µM (inactive) | > 100 µM (inactive) | > 100 µM | > 100 µM (inactive) | 29.4 µM (inactive) | > 100 µM (inactive) | > 100 µM (inactive) | > 100 µM (inactive) | > 100 µM (inactive) |  | 
N#Cc1sc2c(c1OC(=O)c1cccs1)c(=O)n(-c1ccccc1)c(=S)n2-c1ccccc1 | 20.2 µM (inactive) | 21.1 µM (inactive) | 19.6 µM (inactive) | 29.6 µM (inactive) |  | 19.2 µM (inactive) | 19.4 µM (inactive) | 22 µM (inactive) | 18 µM (inactive) | 26.5 µM (inactive) | 32.4 µM (inactive) | 17.3 µM | 20.3 µM (inactive) | 31.1 µM (inactive) | 19.9 µM (inactive) | 25.3 µM (inactive) |  | 31.4 µM (inactive) | 21.3 µM (inactive) | 18.7 µM (inactive)
COc1ccc(OC)c2c1-c1nnnn1CCC2(C)C | > 100 µM (inactive) | > 100 µM (inactive) | > 100 µM (inactive) | > 100 µM (inactive) | > 100 µM (inactive) | > 100 µM (inactive) | > 100 µM (inactive) | > 100 µM (inactive) | > 100 µM (inactive) | > 100 µM (inactive) |  | > 100 µM | > 100 µM (inactive) | > 100 µM (inactive) | > 100 µM (inactive) | > 100 µM (inactive) | > 100 µM (inactive) | > 100 µM (inactive) | > 100 µM (inactive) | > 100 µM (inactive)
C[C@H](NC1=C(Cl)C(=O)c2c(O)ccc(O)c2C1=O)C(=O)Nc1ccc([N+](=O)[O-])cc1 | 2.58 µM (inactive) | 3.52 µM (inactive) | 2.45 µM (inactive) | 6.89 µM (inactive) | 2.08 µM (inactive) | 1.6 µM (inactive) | 10 µM (inactive) | 10 µM (inactive) | 3.41 µM (inactive) | 3.06 µM (inactive) | 4.13 µM (inactive) | 1.93 µM |  | 1.38 µM (inactive) | 1.59 µM (inactive) | 2.02 µM (inactive) | 2.94 µM (inactive) | 1.6 µM (inactive) |  | 1.84 µM (inactive)
O=S1(=O)Cc2ccc3c4c2-c2c(ccc5ccc(c-4c25)CS(=O)(=O)C3)C1 | > 100 µM (inactive) | > 100 µM (inactive) | > 100 µM (inactive) | > 100 µM (inactive) | 89.9 µM (inactive) | 82.4 µM (inactive) | 23.1 µM (inactive) | 26.7 µM (inactive) | 93.1 µM (inactive) | > 100 µM (inactive) |  | 22.9 µM | 44.6 µM (inactive) | > 100 µM (inactive) |  |  | 20.7 µM (inactive) | 49.5 µM (inactive) | 16.3 µM (inactive) | 20 µM (inactive)
O=C1CCC[C@]2(CCC[C@@H](O)C2)N1 |  | > 100 µM (inactive) | > 100 µM (inactive) | > 100 µM (inactive) |  | > 100 µM (inactive) | > 10 µM (inactive) | > 100 µM (inactive) | > 100 µM (inactive) | > 100 µM (inactive) | > 100 µM (inactive) | > 100 µM | > 100 µM (inactive) | > 100 µM (inactive) | > 100 µM (inactive) |  | > 100 µM (inactive) | > 100 µM (inactive) | > 100 µM (inactive) | 
CCOC(=O)c1cn(CC)c2cc3c(cc2c1=O)CCS3(=O)=O | > 100 µM (inactive) | 19.1 µM (inactive) | > 100 µM (inactive) | > 100 µM (inactive) | > 100 µM (inactive) | > 100 µM (inactive) | > 100 µM (inactive) | > 100 µM (inactive) | > 100 µM (inactive) | > 100 µM (inactive) |  | > 100 µM |  | > 100 µM (inactive) |  | > 100 µM (inactive) | > 100 µM (inactive) | > 100 µM (inactive) | > 100 µM (inactive) | 
COC(=O)C1Cc2c([nH]c3ccccc23)-c2[nH]c3ccccc3c2CC(NC(C)=O)C(=O)NCC(=O)N1 (centres undefined) | > 100 µM (inactive) | > 100 µM (inactive) | > 100 µM (inactive) | > 100 µM (inactive) | 77.4 µM (inactive) | > 100 µM (inactive) | > 100 µM (inactive) | > 100 µM (inactive) | > 100 µM (inactive) | > 100 µM (inactive) | > 100 µM (inactive) | > 100 µM | > 100 µM (inactive) | > 100 µM (inactive) | > 100 µM (inactive) | > 100 µM (inactive) | > 100 µM (inactive) | > 100 µM (inactive) |  | > 100 µM (inactive)
CN(C)CCOc1ccc([N+](=O)[O-])c2cccnc12 | > 100 µM (inactive) | > 100 µM (inactive) | > 100 µM (inactive) | > 100 µM (inactive) |  | 60.4 µM (inactive) | 60.8 µM (inactive) | 97.3 µM (inactive) | > 100 µM (inactive) | > 100 µM (inactive) | > 100 µM (inactive) | > 100 µM |  | > 100 µM (inactive) | 43 µM (inactive) | > 100 µM (inactive) | > 100 µM (inactive) | > 100 µM (inactive) | > 100 µM (inactive) | 
COc1ccc(OC)c(/C=C/C(=O)C(C)(C)C)c1 | 20 µM (inactive) | > 10 µM (inactive) | 23.3 µM (inactive) | 37.2 µM (inactive) | 18.7 µM (inactive) | 21 µM (inactive) | 13.6 µM (inactive) | 20.8 µM (inactive) |  | 17.2 µM (inactive) | 20.6 µM (inactive) | 20.1 µM | 21.1 µM (inactive) | 23.3 µM (inactive) | 19 µM (inactive) | 19.6 µM (inactive) | 19.9 µM (inactive) | 19.5 µM (inactive) | 14.7 µM (inactive) | 13.3 µM (inactive)
O=C1C(Cl)=C(Cl)C(=O)C2=C1C1c3ccccc3C2c2ccccc21 | 20.9 µM (inactive) | > 100 µM (inactive) | 28.9 µM (inactive) | 94.4 µM (inactive) | 19.5 µM (inactive) | > 100 µM (inactive) | > 100 µM (inactive) | 38.6 µM (inactive) | > 100 µM (inactive) | 49.5 µM (inactive) |  | 39.3 µM |  | 36.1 µM (inactive) | 24.2 µM (inactive) | 46.3 µM (inactive) | 43.2 µM (inactive) | 22.3 µM (inactive) | 26.2 µM (inactive) | 25.6 µM (inactive)
Cc1ccc(OCCn2cc(Nc3ccccc3)c(=O)[nH]c2=O)cc1 | > 100 µM (inactive) | > 100 µM (inactive) |  |  | > 100 µM (inactive) | > 100 µM (inactive) | > 100 µM (inactive) | > 100 µM (inactive) | > 100 µM (inactive) | > 100 µM (inactive) | > 100 µM (inactive) | > 100 µM | > 100 µM (inactive) | > 100 µM (inactive) | > 100 µM (inactive) | > 100 µM (inactive) | > 100 µM (inactive) | > 100 µM (inactive) |  | > 100 µM (inactive)
CSC1=N/C(=C\c2ccccc2)C(=O)N1CN1CCOCC1 | 64.4 µM (inactive) | > 100 µM (inactive) | > 100 µM (inactive) | > 100 µM (inactive) | > 100 µM (inactive) | > 100 µM (inactive) | 64.6 µM (inactive) | 41.9 µM (inactive) | 68.9 µM (inactive) | 52.5 µM (inactive) |  | 33.3 µM | 31.6 µM (inactive) | > 100 µM (inactive) | 54.5 µM (inactive) | > 100 µM (inactive) | 38.9 µM (inactive) | 41.1 µM (inactive) | 54.6 µM (inactive) | 30.1 µM (inactive)
[O-][S+](c1ccccc1)c1ccc(/N=N/O)nc1 (centres undefined) | > 100 µM (inactive) |  | > 100 µM (inactive) | > 100 µM (inactive) |  | > 100 µM (inactive) | > 100 µM (inactive) | > 100 µM (inactive) | 78.5 µM (inactive) | > 100 µM (inactive) | > 100 µM (inactive) | > 100 µM |  | > 100 µM (inactive) | > 100 µM (inactive) | > 100 µM (inactive) | > 100 µM (inactive) | > 100 µM (inactive) | > 100 µM (inactive) | 
CN(C)CCSc1cc(-c2ccccc2)c2ccccc2n1 | 10.6 µM (inactive) | 14.2 µM (inactive) | 10.3 µM (inactive) | 3.91 µM (inactive) |  | 15 µM (inactive) | 6.38 µM (inactive) | 2.09 µM (inactive) | 12.2 µM (inactive) | 13.6 µM (inactive) | 16.3 µM (inactive) | 3.82 µM | 10.4 µM (inactive) |  | 1.97 µM (inactive) | 10 µM (inactive) | 13.5 µM (inactive) | 10.8 µM (inactive) | 3.69 µM (inactive) | 17.3 µM (inactive)
NC(=O)CNC(=O)C1CCCN1C(=O)C1CCCCNOC(=O)CCC(NC(=O)OCC2c3ccccc3-c3ccccc32)C(=O)NC(Cc2c[nH]c3ccccc23)C(=O)N1 (centres undefined) (Fmoc-EW[X36]PG-NH2; ester 1-3; configuration not given here) | > 100 µM (inactive) | > 100 µM (inactive) | > 100 µM (inactive) | 63.4 µM (inactive) | > 100 µM (inactive) | > 100 µM (inactive) | > 100 µM (inactive) | > 100 µM (inactive) | > 100 µM (inactive) | > 100 µM (inactive) |  | > 100 µM | > 100 µM (inactive) | > 100 µM (inactive) | > 100 µM (inactive) | > 100 µM (inactive) | > 100 µM (inactive) | > 100 µM (inactive) | > 100 µM (inactive) | > 100 µM (inactive)
